Values joined by “and” are separate entries in the source; they are usually repeats but may differ in a detail not shown here. Identical values can stand only once.
These compounds were tested against SARS-CoV-2_WT Mpro (Severe acute respiratory syndrome coronavirus 2, UniProt P0DTD1) (assay: biochemical). Settings: 25 nM SARS-2 Mpro, 25 μM substrate, 30 min pre-incubation.
With `Oc1ccc2c(c1)oc1c(-c3ccc(O)c(O)c3)c3c(O)nn(C4CCCCC4)c3nc12` [ID11, Oc1ccc2c(c1)oc1c(-c3ccc(O)c(O)c3)c3c(O)nn(C4CCCCC4)c3nc12] the IC50 was < 100 µM and 54.4 µM. With `Oc1ccc(-c2c3oc4c(O)c(O)ccc4c3nc3c2c(O)nn3C2CCCCCC2)cc1O` [ID14, Oc1ccc(-c2c3oc4c(O)c(O)ccc4c3nc3c2c(O)nn3C2CCCCCC2)cc1O] the IC50 was < 100 µM. In the case of `Oc1ccc(-c2c3oc4cc(O)ccc4c3nc3c2c(O)nn3C2CCCCCC2)cc1` [ID18, Oc1ccc(-c2c3oc4cc(O)ccc4c3nc3c2c(O)nn3C2CCCCCC2)cc1], the IC50 is reported as < 100 µM. For `Cc1c(O)ccc2c1oc1c(-c3ccc(O)c(O)c3)c3c(O)nn(C4CCCCC4)c3nc12` [ID20, Cc1c(O)ccc2c1oc1c(-c3ccc(O)c(O)c3)c3c(O)nn(C4CCCCC4)c3nc12], the IC50 was < 100 µM. `COc1cc(-c2c3oc4cc(O)ccc4c3nc3c2c(O)nn3C2CCCCC2)cc(O)c1O` [ID32, COc1cc(-c2c3oc4cc(O)ccc4c3nc3c2c(O)nn3C2CCCCC2)cc(O)c1O] was tested, and the IC50 was < 100 µM. For `Oc1ccc(-c2c3oc4c(O)c(O)ccc4c3nc3c2c(O)nn3C2CCCCC2)cc1Cl` [ID35, Oc1ccc(-c2c3oc4c(O)c(O)ccc4c3nc3c2c(O)nn3C2CCCCC2)cc1Cl], the IC50 was < 100 µM and 59.4 µM. For `COc1cc(-c2c3oc4cc(O)ccc4c3nc3c2c(O)nn3C2CCCCCCC2)cc(O)c1O` [ID41, COc1cc(-c2c3oc4cc(O)ccc4c3nc3c2c(O)nn3C2CCCCCCC2)cc(O)c1O], the IC50 was < 100 µM.
